Earlier results as cited in patent publication US20250289851A1, “CYCLIC PEPTIDES FOR DELIVERING THERAPEUTICS” (ENTRADA THERAPEUTICS, INC., priority 2022, published 2025).

Columns and labels:
[1] = hydrophobicity value, scale of Eisenberg and Weiss
[2] = hydrophobicity value, scale of Kyte and Doolittle
[3] = hydrophobicity value, scale of Hoop and Woods
[4] = hydrophobicity value, scale of Engleman et al.
[5] = hydrophobicity value, scale of Janin

In the case of `CC[C@H](C)[C@H](N)C(=O)O` [Ile, Isoleucine], the “Amino Acid Hydrophobicity, Eisenberg and Weiss” value [1] is listed as 0.73, the “Amino Acid Hydrophobicity, Kyte and Doolittle” value [2] is listed as 4.5 and the “Amino Acid Hydrophobicity, Hoop and Woods” value [3] is listed as −1.8. The “Amino Acid Hydrophobicity, Engleman et al.” value [4] was 3.1 and the “Amino Acid Hydrophobicity, Janin” value [5] was 0.7.
